Assay results as given in PubChem BioAssay AID504882 (Broad Institute, 2011).
Results filed as inconclusive are left out. Calls of active or inactive are those of the source. How the calls were made is not given here.

test system: EBV lymphoblastoid cells (LCL) viability, plate reader; test: cytotoxicity in EBV lymphoblastoid cells, dose response, cytotoxicity control, cell-based, plate reader, cherry-picks, set 2 (AID 504882)

SMILES | AC50
COc1ccccc1-c1nnc(Sc2nc([N+](=O)[O-])nn2C)o1 | 8.25 µM
Cc1cccc(-n2ncc(Cl)c(Cl)c2=O)c1 | 1.59 µM
CCNC(=S)NNC(=O)c1cc(-c2ccc(OCC)cc2)nc2ccccc12 | 7.85 µM
CC(=O)c1ccc(-c2nc3c4ccccc4ccn3c2C(C)=O)o1 | 0.371 µM
CCn1c2ccccc2c2cc(/C=N/n3cnnc3)ccc21 | 10.7 µM
O=c1c2c(nc3c(-c4cccc(Br)c4)c[nH]n13)CCCC2 | 11 µM
CCn1c2ccccc2c2cc(/C=N/n3c(-c4cc(C)[nH]n4)n[nH]c3=S)ccc21 | 6.59 µM
COc1cccc(N=Nc2ccc(O)c3ncccc23)c1 | 2.18 µM
CC(=O)NC(c1ccc2ccccc2c1)c1ccc2cccnc2c1O (stereo unspecified) | 1.93 µM
Cc1csc(N=Nc2ccc(N(C)C)cc2)[n+]1[O-] | 7.33 µM
CCCCC(=O)NC(c1ccc(OC)c(OC)c1)c1ccc2cccnc2c1O (stereo unspecified) | 5.63 µM
Cc1ccc(/C=N/NC(=O)c2cc(-c3ccccc3)nc3ccccc23)o1 | > 19.5 µM (inactive)
C=CC(=O)OCCOCCOCCOCCOC(=O)C=C | 16.9 µM
CC(=NNc1nc2ccccc2o1)c1ncccn1 | 0.384 µM
CCN(CC)c1ccc(/C=N/NC(=O)c2cnccn2)c(O)c1 | 3.23 µM
N#Cc1ccc(-c2csc(NNC(=O)c3ccc(Br)cc3)n2)cc1 | 5.38 µM
COc1nc(Nc2nc3ccccc3c(=O)[nH]2)nc2ccc(C)cc12 | 2.23 µM
CC(C)C(=O)NC(c1ccc(Cl)cc1Cl)c1ccc2cccnc2c1O (stereo unspecified) | 2.28 µM
CCn1c2ccccc2c2cc(/C=N/n3c(C)nnc3C)ccc21 | > 19.5 µM (inactive)
COc1ccc(CNC(=O)N2[C@H]3CC[C@@H]2C=C(c2ccc(F)cc2OCc2ccccc2)C3)cc1OC | 2.3 µM
CCN1CCN(Cc2ccc(NC(=O)c3ccc(C)c(NC(=O)c4c[nH]c5cc(C(F)(F)F)ccc5c4=O)c3)cc2C(F)(F)F)CC1 | 3.95 µM
O=C(N/N=C/c1sc2ccccc2c1O)c1cccc2ccccc12 | 1.71 µM
COc1cccc(/C=N/Nc2nccnc2Cl)c1O | 3.86 µM

SMILES | AC50
CCOC(=O)c1c2c(n(C)c1C)C(=O)C(=O)c1ccc(Br)cc1-2 | 1.95 µM
COc1ccc(/C=C/c2nc3ccccc3n2C)cc1 | 3.28 µM
NC(Cc1ccc(O)cc1)C(=O)NN=Cc1ccc(N(CCCl)CCCl)cc1 (stereo unspecified) | 0.983 µM
COc1cccc(/C=N/Nc2ncnc(Cl)c2N)c1O | 3.73 µM
NC(=S)N/N=C/c1ncc(C(F)(F)F)cc1Cl | 10.6 µM
Oc1c(N=NC(=S)Nc2ccccc2F)c2ccccc2n1Cc1cccc(Cl)c1 | > 19.5 µM (inactive)
Cc1cc(C)nc(SCc2ccc(C(=O)N/N=C/c3cccc(O)c3O)cc2)n1 | 10.9 µM
O=C(N/N=C/c1cc2c3c(c1O)CCCN3CCC2)c1ccccc1O | 3.05 µM
Oc1ccc2ccccc2c1N=Nc1ccccn1 | 4.54 µM
CCc1cc(C(=O)Nc2ncccc2O)sc1C | > 19.5 µM (inactive)
CC(C)CC(=NNC(=O)c1ccncc1)c1cc(Cl)ccc1O | 3.19 µM
Cc1ccc(C(=O)Nc2sc(Cc3ccc4c(c3)OCO4)c(C)c2C(N)=O)cc1 | 19.2 µM
COc1ccc(O)c(/C=N/Nc2nc(Nc3ccccc3)nc(-n3nc(C)cc3C)n2)c1 | 10.7 µM
Cc1onc(-c2ccccc2)c1C(=O)NC(=S)NNC(=O)c1ccc(O)cc1O | > 19.5 µM (inactive)
O=C(/C=C/c1ccco1)Oc1cc(Br)cc(/C=N/NC(=O)c2ccccc2O)c1 | 6.29 µM
CCN(CC)CCC(=O)N1C/C(=C/c2ccccc2)C(=O)/C(=C\c2ccccc2)C1 | 1.36 µM
Cc1ccc2[nH]c3c(N4CCN(Cc5ccccc5)CC4)ncnc3c2c1 | 10.6 µM
Cn1nnnc1N=N/C(=N/Nc1ccccc1)c1ccccc1 | 1.71 µM
c1ccc(-c2cccc(-c3ccccn3)n2)nc1 | 1.69 µM
COc1ccccc1N(C(C)=O)C1=C(Cl)C(=O)c2ccccc2C1=O | 2.59 µM
CC(=O)NC(c1ccc(Cl)cc1)c1ccc2cccnc2c1O (stereo unspecified) | 1.21 µM
CCOC(=O)c1cnc(-n2nc(C)cc2C)nc1NNc1cc(C)nc(-c2ccccc2)n1 | 3.73 µM
COc1ccc(OCc2cccc(C(=O)NN)c2)cc1 | > 19.5 µM (inactive)
